Assay results taken from ChEMBL document CHEMBL1201862, “PubChem BioAssay data set” (2004).
Values joined by “and” are separate entries in the source; they are usually repeats but may differ in a detail not shown here. Equal entries are not always repeated.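 Protocol summary: plate cells (96-well), add compound at 5 concentrations, incubate 48 h, interpolate endpoints linearly. At the GI50, growth is halved.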 Active and inactive are the calls of the source. Rule as the data show it: active = GI50 up to about 1.1 µM and inactive = higher. Square brackets hold non-standard residues; d marks the D form. Peptide text beside a SMILES is read from it. * marks the point of attachment. ξ: configuration not given here. ξF = NC(Cc1ccccc1)C(=O)O; Cbz = O=C(OCc1ccccc1)*; Aib = CC(C)(N)C(=O)O

How the values were obtained:
Assay in all cases: NCI anticancer screen, dose series, 48 h
786-0 = system: 786-0
COLO 205 = system: COLO 205
DU-145 = system: DU-145
HCT-15 = system: HCT-15
HOP-62 = system: HOP-62
K562 = system: K562
LOX IMVI = system: LOX IMVI
MCF7 = system: MCF7
MOLT-4 = system: MOLT-4
Malme-3M = system: Malme-3M
NCI-H23 = system: NCI-H23
NCI/ADR-RES = system: NCI/ADR-RES
OVCAR-8 = system: OVCAR-8
SF-295 = system: SF-295
SK-OV-3 = system: SK-OV-3
SN12C = system: SN12C
TK-10 = system: TK-10
U-251 = system: U-251
UACC-62 = system: UACC-62
RXF 393 = system: RXF 393

SMILES | GI50 (786-0) | GI50 (COLO 205) | GI50 (DU-145) | GI50 (HCT-15) | GI50 (HOP-62) | GI50 (K562) | GI50 (LOX IMVI) | GI50 (MCF7) | GI50 (MOLT-4) | GI50 (Malme-3M) | GI50 (NCI-H23) | GI50 (NCI/ADR-RES) | GI50 (OVCAR-8) | GI50 (SF-295) | GI50 (SK-OV-3) | GI50 (SN12C) | GI50 (TK-10) | GI50 (U-251) | GI50 (UACC-62) | GI50 (RXF 393)
CC(=O)OI1NC(=O)c2ccccc21 | > 100 µM (inactive) | > 100 µM (inactive) | > 100 µM (inactive) | > 100 µM | > 100 µM (inactive) | > 100 µM (inactive) | > 100 µM (inactive) | 93.5 µM (inactive) | > 100 µM (inactive) | > 100 µM (inactive) | > 100 µM (inactive) | > 100 µM (inactive) | > 100 µM (inactive) | > 100 µM (inactive) | > 100 µM (inactive) | > 100 µM (inactive) | > 100 µM (inactive) | > 100 µM (inactive) | > 100 µM (inactive) | 
Cc1ccc(/C=C2/N/C(=N\N=C/C(O)C(O)C(O)CO)NC2=O)cc1 (stereo not drawn) | > 100 µM (inactive) | > 100 µM (inactive) | > 100 µM (inactive) | 89.9 µM and 79.1 µM | > 100 µM (inactive) | 55.5 µM (inactive) and 47.8 µM (inactive) | > 100 µM (inactive) | > 100 µM (inactive) |  |  | > 10 µM (inactive) | > 100 µM (inactive) | > 100 µM (inactive) | > 100 µM (inactive) | > 100 µM (inactive) | > 100 µM (inactive) | > 100 µM (inactive) | > 100 µM (inactive) |  | > 100 µM (inactive)
CC(C)(NC(=O)OCc1ccccc1)C(=O)NC(Cc1ccccc1)C(=O)O (stereo not drawn) (Cbz-[Aib]-[ξF]-OH) | > 100 µM (inactive) | > 100 µM (inactive) | > 100 µM (inactive) | > 100 µM | > 100 µM (inactive) | > 100 µM (inactive) | > 100 µM (inactive) | > 100 µM (inactive) | > 100 µM (inactive) | > 100 µM (inactive) | > 100 µM (inactive) | > 100 µM (inactive) | > 100 µM (inactive) | > 100 µM (inactive) | > 100 µM (inactive) | > 100 µM (inactive) |  | > 100 µM (inactive) | > 100 µM (inactive) | 
O=C1CSC(c2ccc(Cl)cc2)N1c1ccc(-n2c(-c3ccccc3)nc3ccccc3c2=O)cc1 (stereo not drawn) | 87.1 µM (inactive) | > 100 µM (inactive) | > 10 µM (inactive) | 20.4 µM | > 100 µM (inactive) | 36.8 µM (inactive) | 50.8 µM (inactive) | 30.8 µM (inactive) | 21.2 µM (inactive) | 48.9 µM (inactive) | > 100 µM (inactive) | 23.8 µM (inactive) | > 100 µM (inactive) | 46.1 µM (inactive) | > 100 µM (inactive) | > 100 µM (inactive) | > 100 µM (inactive) | 88.5 µM (inactive) | 19.8 µM (inactive) | 
COc1ccc(/N=N/C(=N\c2ccc(Cl)cc2)c2ccc(N(CCC#N)CCC#N)cc2)cc1 | 83.8 µM (inactive) | 5.19 µM (inactive) | 20 µM (inactive) | 2.39 µM | 79.3 µM (inactive) | 26.4 µM (inactive) |  | 8.05 µM (inactive) | 15.3 µM (inactive) |  | 40.9 µM (inactive) | 10.5 µM (inactive) | > 100 µM (inactive) | 2.2 µM (inactive) | > 100 µM (inactive) | > 100 µM (inactive) | 38.7 µM (inactive) | 41.4 µM (inactive) | 1.49 µM (inactive) | 12.7 µM (inactive)
COC(=O)CCc1ccc2c(c1)CCC2 | > 100 µM (inactive) | > 100 µM (inactive) | > 100 µM (inactive) | > 100 µM | > 100 µM (inactive) |  | > 100 µM (inactive) | > 100 µM (inactive) | > 100 µM (inactive) | > 100 µM (inactive) | > 100 µM (inactive) | > 100 µM (inactive) | > 100 µM (inactive) | > 100 µM (inactive) | > 100 µM (inactive) | > 100 µM (inactive) | > 100 µM (inactive) | > 100 µM (inactive) | > 100 µM (inactive) | 
O=C(Nc1ccc(Cl)cc1)[C-](C(=O)c1ccc(Br)cc1)[n+]1cccc(-c2ccc(Cl)cc2)n1 | 2.56 µM (inactive) | 4.15 µM (inactive) | 5.45 µM (inactive) | 3.93 µM | 6.28 µM (inactive) | 6.3 µM (inactive) | 2.97 µM (inactive) | 1.41 µM (inactive) | 5.05 µM (inactive) | 2.86 µM (inactive) | 2.37 µM (inactive) | 3.53 µM (inactive) | 3.56 µM (inactive) | 2.6 µM (inactive) | 6.35 µM (inactive) | 2.88 µM (inactive) | 5.74 µM (inactive) | 3.87 µM (inactive) | 3.85 µM (inactive) | 
